Legend:
Format in all cases: cell-based
[1] = system: human FLS cells; assay: IL-6 production in human FLS cells stimulated with TGF-β (ELISA); conditions: FIG. 4
Procedure: Tissue culture supernatants were harvested from human FLS cells after stimulation for 24 hr with TGF-β with and without IDR-1002. The supernatants were centrifuged at 1500×g for 7 min to obtain cell-free samples. The samples were aliquoted and stored at −20° C. until further use. Production of IL-6 in the tissue culture supernatants was monitored using Quantikine® human […] ELISA following the manufacturer's instructions. […] FLS cells stimulated with TGF-β produced more than 500 pg/ml of IL-6. […] Results shown are an average of at least three independent biological experiments performed with cells isolated from synovial tissues obtained from independent donors±standard error (*p<0.05, **p<0.01).

[2] = system: NF-κB; assay: Secreted NF-κB luciferase reporter assay in rabbit synoviocyte HIG-82 cells; conditions: IL-1β 10 ng/ml, IDR-1002 100 μg/ml, 6 hr, FIG. 3
Procedure: Rabbit synoviocyte HIG-82 cells were transiently transfected with pNFκB-MetLuc2-Reporter Vector (Clontech laboratories Inc., Mountain View, Calif., USA) or the provided control vector as per the manufacturer's instructions. Various stimulants were added to the transfected cells in culture media containing 1% (v/v) FBS. The cells were stimulated with recombinant human IL-1β in the presence and absence of IDR-1002 for 6 hr. The peptide was added either 45 min prior to, or at the time of cytokine stimulation. The activation of NF-κB was monitored by employing the Ready-To-Glow Secreted NF-κB Luciferase Reporter Assay (Clontech) as per the manufacturer's instructions.
Transcription factor NF-κB is central to the destructive effects associated with the escalation and sustenance of inflammatory responses pivotal in chronic inflammatory diseases including arthritis. Quantitative proteomics evaluation using iTRAQ® labelling pointed to the possibility that the peptide IDR-1002 altered IL-1β-induced NF-κB activation. Therefore, this study further evaluated the impact of IDR-1002 on IL-1β-induced direct activation of NF-κB in synovial fibroblasts. […] The activation of NF-κB was monitored by employing the Ready-To-Glow Secreted NF-κB Luciferase Reporter Assay (Clontech) as per the manufacturer's instructions.

[3] = system: Human macrophage-like THP-1 cells; assay: TNF-α and IL-1β production in IL-32-stimulated THP-1 cells (ELISA); conditions: 24 hr; for reduction of IL-32-induced TNF-α production: FIG. 7A; for reduction of IL-32-induced IL-1β production: FIG. 7B
Procedure: Human macrophage-like THP-1 cells were stimulated for 24 hr with pro-inflammatory cytokine IL-32 (20 ng/ml) in the presence and absence of IDR-1002 (10 or 20 μM). The tissue culture supernatants were monitored for the production of pro-inflammatory cytokines TNF-α and IL-1β after 24 hr by ELISA as described previously.

VQRWLIVWRIRK (IDR-1002 peptide)
reduction in TGF-β-induced IL-6 production ([1]; TGF-β with IDR-1002, 24 hr): more than 50% | IL-6 production by IDR-1002 alone ([1]; no TGF-β, 24 hr): did not stimulate production of IL-6 | suppression of IL-1β-induced activation of NF-κB [2]: greater than 70% | reduction of IL-32-induced TNF-α production ([3]; 10 μM IDR-1002, IL-32 20 ng/ml): 40% | reduction of IL-32-induced IL-1β production ([3]; 10 μM IDR-1002, IL-32 20 ng/ml): about 40% | reduction of IL-32-induced TNF-α production ([3]; 20 μM IDR-1002, IL-32 20 ng/ml): about 70% | reduction of IL-32-induced IL-1β production ([3]; 20 μM IDR-1002, IL-32 20 ng/ml): about 65%
